In brackets after ≈: the same amount, converted by molar mass. Where two headings read alike, the source gives them in different places.
How the values were obtained:
Assay type in all cases: cell-based
[1] = system: E. coli NCTC 8196; experiment: MIC and MBC determination; conditions: Escherichia coli, NCTC8196
Experimental: (§1) The antimicrobial activity of the THEDES was also assessed by determining the minimum inhibitory concentration (MIC) and the minimum bactericidal concentration (MBC) of MET, MA and the equimolar THEDES, respectively. Concentrations of 6 mg/mL MET, MA and MET-MA 1:1 were used to determine the MIC and MBC values against gram-positive bacteria E. faecalis, S. epidermidis and S. aureus, and gram-negative bacteria P. aeruginosa, E. coli and K. pneumoniae; results are shown in Table 4.

[2] = system: E. faecalis ATCC 29212; experiment: MIC and MBC determination; conditions: Enterococcus faecalis, ATCC29212
Experimental: as §1

[3] = system: K. pneumoniae ATCC 700603; experiment: MIC and MBC determination; conditions: Klebsiella pneumoniae, ATCC700603
Experimental: as §1

[4] = system: P. aeruginosa ATCC 27853; experiment: MIC and MBC determination; conditions: Pseudomonas aeruginosa, ATCC27853
Experimental: as §1

[5] = system: P. aeruginosa NCTC 10783; experiment: MIC and MBC determination; conditions: Pseudomonas aeruginosa, NCTC10783
Experimental: as §1

[6] = system: S. aureus ATCC 29213; experiment: MIC and MBC determination
Experimental: as §1

[7] = system: S. aureus NCTC 10788; experiment: MIC and MBC determination
Experimental: as §1

[8] = system: S. aureus NCTC 12493 (MRSA); experiment: MIC and MBC determination
Experimental: as §1

[9] = system: S. epidermidis ATCC 35984; experiment: MIC and MBC determination; conditions: Staphylococcus epidermidis, ATCC35984
Experimental: as §1

[10] = system: Pseudomonas aeruginosa; experiment: Disc diffusion inhibition zone assay; conditions: gentamicin sulphate 10 mg/mL, THEDES neat, average n = 9 ± S.D.
[11] = system: Klebsiella pneumoniae ATCC 700603; experiment: Disc diffusion inhibition zone assay; conditions: gentamicin sulphate 10 mg/mL, THEDES neat, average n = 9 ± S.D.
Experimental: (§2) The disc diffusion assays were carried out against Staphylococcus aureus (FIG. 7, Gram-positive, frequently found in the upper respiratory tract and on the skin) and Klebsiella pneumoniae (FIG. 8, Gram-negative, facultative anaerobic, typically residing in human intestines and faeces). In general, the calculated inhibition zones of gentamicin sulphate (10 mg/mL) and the neat THEDES were very similar, confirming the antimicrobial activity of the THEDES against both gram-positive and gram-negative bacteria (Table 3).

[12] = system: Staphylococcus aureus NCTC 10788; experiment: Disc diffusion inhibition zone assay; conditions: gentamicin sulphate 10 mg/mL, THEDES neat, average n = 9 ± S.D.
Experimental: as §2

[13] = Staphylococcus aureus, ATCC29213, S. aureus ATCC 29213
[14] = Staphylococcus aureus, NCTC10788, S. aureus NCTC 10788
[15] = Staphylococcus aureus, S. aureus NCTC 12493 (MRSA)

Compound | MBC [1] [µg/mL] | MIC [1] [µg/mL] | MBC [2] [µg/mL] | MIC [2] [µg/mL] | MBC [3] [µg/mL] | MIC [3] [µg/mL] | MBC [4] [µg/mL] | MIC [4] [µg/mL] | MBC [5] [µg/mL] | MIC [5] [µg/mL] | MBC [6, 13] [µg/mL] | MBC [7, 14] [µg/mL] | MBC [8, 15] [µg/mL] | MBC [9] [µg/mL] | MIC [9] [µg/mL] | further results
O=C(O)/C=C\C(=O)O [MA, maleic acid] | > 6000 | 6000 (≈ 51.7 mM) | > 6000 | 6000 (≈ 51.7 mM) | > 6000 | > 6000 | > 6000 | 6000 (≈ 51.7 mM) | > 6000 | 6000 (≈ 51.7 mM) | > 6000 | > 6000 | > 6000 | > 6000 | 6000 (≈ 51.7 mM) | MIC ([6]; Staphylococcus aureus, ATCC29213, S. aureus ATCC 29213, read-out: MIC): 6000 µg/mL (≈ 51.7 mM); MIC ([7]; Staphylococcus aureus, NCTC10788, S. aureus NCTC 10788, read-out: MIC): 6000 µg/mL (≈ 51.7 mM); MIC ([8]; Staphylococcus aureus, S. aureus NCTC 12493 (MRSA), read-out: MIC): 6000 µg/mL (≈ 51.7 mM)
gentamicin sulphate | – | – | – | – | – | – | – | – | – | – | – | – | – | – | – | ZOI Diameter [10]: 26.04 ± 1.75 mm; ZOI Diameter [11]: 24.13 ± 1.09 mm; ZOI Diameter [12]: 46.09 ± 1.69 mm
Cc1ncc([N+](=O)[O-])n1CCO [MET, metronidazole] | > 6000 | > 6000 | > 6000 | > 6000 | 6000 (≈ 35.1 mM) | 6000 (≈ 35.1 mM) | > 6000 | > 6000 | > 6000 | > 6000 | > 6000 | > 6000 | > 6000 | 3000 (≈ 17.5 mM) | 3000 (≈ 17.5 mM) | MIC ([6]; S. aureus ATCC 29213): 6000 µg/mL (≈ 35.1 mM); MIC ([6]; Staphylococcus aureus, ATCC29213, non-methicillin-resistant S. aureus strain, read-out: MIC): 6000 µg/mL (≈ 35.1 mM); MIC ([7]; S. aureus NCTC 10788): 6000 µg/mL (≈ 35.1 mM); MIC ([7]; Staphylococcus aureus, NCTC10788, non-methicillin-resistant S. aureus strain, read-out: MIC): 6000 µg/mL (≈ 35.1 mM); MIC ([8]; S. aureus NCTC 12493 (MRSA)): >6000 µg/mL; MIC ([8]; Staphylococcus aureus, methicillin-resistant strain of S. aureus (MRSA), read-out: MIC): > 6000 µg/mL

From patent publication US20240157020A1, “SUTURES” (The Queen's University of Belfast, priority 2021, published 2024)
